Assay results from US20240239766A1, “3-AMINO PIPERIDYL SODIUM CHANNEL INHIBITORS” (Genentech, Inc., priority 2021, published 2024).
Where a name gives a salt, the structure may show the parent alone.

Target: hNav1.7 (Homo sapiens (Human), UniProt Q15858)
Assay: Patch voltage clamp electrophysiology assay (EP), Syncropatch 384PE, CHO cells expressing Nav1.7
Format: cell-based
Conditions: holding potential −50 mV; 7.5 min compound incubation; read-out: EP SP hNav1.7 EVO (IC50)
From the text: Example 101c: Electrophysiological Assay (EP) (In Vitro Assay)
Patch voltage clamp electrophysiology allows for the direct measurement and quantification of block of voltage-gated sodium channels (NaV's), and allows the determination of the time- and voltage-dependence of block which has been interpreted as differential binding to the resting, open, and inactivated states of the sodium channel (Hille, B., Journal of General Physiology (1977), 69: 497-515).
The following voltage clamp electrophysiology studies are performed on representative compounds using cells heterologously expressing Nav1.7 or Nav1.5 channels. cDNAsfor Nav1.7 (NM_002977) and Nav1.5 (AC137587) are stably expressed in Chinese Hamstr Ovary (CHO) cells and CHL (Chinese Hamster Lung) cells respectively. Sodium currents are measured in the whole-cell configuration using Syncropatch 384PE (Nanlon Technologies, Germany). 1NPC®-384 chips with custom medium resistance and single hole mode are used. Internal solution consists of (in mM): […], 10 CsCl, 20 EGTA, and 10 Hepes (pH adjusted to 7.2); and external solution contains (in mM): 60 NMDG, 80 NaCl, 4 KCl, 1 MgCl2, 2 CaCl2), 2 D-Glucose monohydrate, 10 Hepes (pH adjusted to 7.4 with NaOH).
After system flushing, testing compounds are dissolved in external solution containing 0.1% Pluronic F-127. The chip is moved into the measuring head and the instrument primes the chip with external and internal solutions. 10 μl cells are added to the chip from a cell hotel, and a negative pressure of −50 mBar is applied to form a seal. Following treatment with seal enhancer solution and wash-off with external solution, negative pressure of −250 mbar is applied for 1 second to achieve the whole-cell configuration, followed by three washing steps in external solution. 20 μl of compounds is added to 40 μl in each well (1:3 dilution of compounds), and after mixing, 20 μl is removed so the volume is retained at 40 ul. After approximately 13 minutes recordings, 20 μl/well of 2 uM TTX, or 333 uM Tetracaine (for Nav1.5) is added to achieve full block.
For voltage protocol, an holding potential of −50 mV is applied during the whole experiment. A depolarizing step is applied to −10 mV for 10 ms, followed by a hyperpolarization step to −150 mV for 20 ms to allow channel recovery from inactivation. A second depolarizing step is applied from −150 mV to −10 mV for 10 ms, where currents are measured to derive blocking effects of compounds. Inhibition is determined based on 7.5 min of compound incubation.

hNav1.7, sequence (Q15858 other isoform, or with tags, fused parts or gaps): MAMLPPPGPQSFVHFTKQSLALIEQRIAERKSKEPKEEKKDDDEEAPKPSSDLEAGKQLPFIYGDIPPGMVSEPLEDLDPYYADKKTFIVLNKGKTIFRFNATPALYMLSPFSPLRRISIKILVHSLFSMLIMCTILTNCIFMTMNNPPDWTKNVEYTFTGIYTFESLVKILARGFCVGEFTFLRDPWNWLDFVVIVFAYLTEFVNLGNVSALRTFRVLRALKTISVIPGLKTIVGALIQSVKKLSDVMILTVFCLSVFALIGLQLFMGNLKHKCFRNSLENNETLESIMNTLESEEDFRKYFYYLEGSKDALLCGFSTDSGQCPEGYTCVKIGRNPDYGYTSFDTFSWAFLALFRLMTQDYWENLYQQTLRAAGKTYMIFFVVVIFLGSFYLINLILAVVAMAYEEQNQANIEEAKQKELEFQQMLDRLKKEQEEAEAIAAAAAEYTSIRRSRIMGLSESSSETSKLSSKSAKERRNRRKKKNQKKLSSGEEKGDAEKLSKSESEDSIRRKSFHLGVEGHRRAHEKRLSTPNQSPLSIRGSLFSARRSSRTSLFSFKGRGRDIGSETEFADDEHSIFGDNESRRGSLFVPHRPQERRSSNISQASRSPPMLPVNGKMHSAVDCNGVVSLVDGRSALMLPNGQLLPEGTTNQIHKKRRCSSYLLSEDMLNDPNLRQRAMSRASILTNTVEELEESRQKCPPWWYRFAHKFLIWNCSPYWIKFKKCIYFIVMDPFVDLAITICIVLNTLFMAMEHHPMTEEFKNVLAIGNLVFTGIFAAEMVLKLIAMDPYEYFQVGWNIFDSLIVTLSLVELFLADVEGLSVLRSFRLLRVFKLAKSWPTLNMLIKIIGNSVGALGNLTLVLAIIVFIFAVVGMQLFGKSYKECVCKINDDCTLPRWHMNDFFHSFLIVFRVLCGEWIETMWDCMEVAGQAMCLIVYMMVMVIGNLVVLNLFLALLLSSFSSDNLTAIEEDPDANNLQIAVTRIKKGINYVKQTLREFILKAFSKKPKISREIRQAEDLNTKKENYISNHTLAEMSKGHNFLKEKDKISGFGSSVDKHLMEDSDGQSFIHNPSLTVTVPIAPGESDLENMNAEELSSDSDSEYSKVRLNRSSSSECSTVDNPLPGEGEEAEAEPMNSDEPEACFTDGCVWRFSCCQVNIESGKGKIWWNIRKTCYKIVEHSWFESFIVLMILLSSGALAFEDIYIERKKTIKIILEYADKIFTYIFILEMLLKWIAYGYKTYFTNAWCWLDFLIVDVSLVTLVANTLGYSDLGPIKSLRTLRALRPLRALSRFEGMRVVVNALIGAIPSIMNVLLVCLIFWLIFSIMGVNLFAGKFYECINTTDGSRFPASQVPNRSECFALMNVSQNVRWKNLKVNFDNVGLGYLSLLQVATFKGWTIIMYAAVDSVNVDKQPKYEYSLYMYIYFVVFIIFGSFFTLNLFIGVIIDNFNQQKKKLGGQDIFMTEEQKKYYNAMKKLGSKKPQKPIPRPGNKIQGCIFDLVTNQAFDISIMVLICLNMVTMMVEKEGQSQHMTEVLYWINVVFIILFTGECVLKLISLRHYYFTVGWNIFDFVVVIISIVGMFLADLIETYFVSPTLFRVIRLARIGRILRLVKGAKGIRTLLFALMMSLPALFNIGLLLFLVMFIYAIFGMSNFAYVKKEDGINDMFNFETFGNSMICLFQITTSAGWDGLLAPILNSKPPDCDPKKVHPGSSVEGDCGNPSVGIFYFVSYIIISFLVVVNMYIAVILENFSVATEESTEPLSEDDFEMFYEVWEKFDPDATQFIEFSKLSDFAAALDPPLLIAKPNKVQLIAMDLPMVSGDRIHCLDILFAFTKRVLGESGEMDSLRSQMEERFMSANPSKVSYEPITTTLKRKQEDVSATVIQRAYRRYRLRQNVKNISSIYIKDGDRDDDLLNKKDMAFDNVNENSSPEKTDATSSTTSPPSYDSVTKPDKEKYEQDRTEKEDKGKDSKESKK

SMILES | IC50 [nM]
CN(C)[C@@]1(CCc2ccc(Cl)c(C(F)(F)F)c2)CCCN(c2ccc(S(=O)(=O)Nc3ccncn3)c(F)c2)C1 (single isomer, unassigned) [Example 19] | 60.4
O=S(=O)(Nc1ccncn1)c1ccc(N2CCC[C@@](CCc3cccc(C(F)(F)F)c3)(N3CCCCC3)C2)cc1F (single isomer, unassigned) [Example 26, formate] | 19.5
CN(C)[C@@]1(CC2CCCC2)CCCN(c2cc(F)c(S(=O)(=O)Nc3ccncn3)c(F)c2)C1 [Example 99, (R)-4-(3-(Cyclopentylmethyl)-3-(dimethylamino)piperidin-1-yl)-2,6-difluoro-N-(pyrimidin-4-yl)benzenesulfonamide] | 8950
CN(C)[C@@]1(CCc2cc(C(F)(F)F)ccc2Cl)CCCN(c2cc(F)c(S(=O)(=O)Nc3ccncn3)c(F)c2)C1 (single isomer, unassigned) [Example 32] | 425
CN(C)[C@@]1(CCc2cccc(C(F)(F)F)c2)CCCN(c2cc(F)c(S(=O)(=O)Nc3ccncn3)cc2Cl)C1 (single isomer, unassigned) [Example 11] | 742
CN(C)[C@]1(CCc2ccc(Cl)c(C(F)(F)F)c2)CCCN(c2cc(F)c(S(=O)(=O)Nc3ccncn3)c(F)c2)C1 (single isomer, unassigned) [Example 55, formate] | 0.879
CN(C)[C@]1(CC2CCCC2)CCCN(c2cc(F)c(S(=O)(=O)Nc3ccncn3)c(F)c2)C1 [Example 100, (S)-4-(3-(Cyclopentylmethyl)-3-(dimethylamino)piperidin-1-yl)-2,6-difluoro-N-(pyrimidin-4-yl)benzenesulfonamide] | 130
O=S(=O)(Nc1ccncn1)c1ccc(N2CCC[C@@](CCc3cccc(C(F)(F)F)c3)(N3CCCC3)C2)cc1F (single isomer, unassigned) [Example 24] | 439
CN(C)[C@]1(CCc2cccc(Cl)c2)CCCN(c2cc(F)c(S(=O)(=O)Nc3ccncn3)c(F)c2)C1 (single isomer, unassigned) [Example 91, formate] | 11.6
CN1CC(CN(C)[C@@]2(CCc3cccc(C(F)(F)F)c3)CCCN(c3ccc(S(=O)(=O)Nc4ccncn4)c(F)c3)C2)C1 (single isomer, unassigned) [Example 29] | 2.66
CN(C)[C@@]1(C[C@H]2CCc3ccc(C(F)(F)F)cc32)CCCN(c2cc(F)c(S(=O)(=O)Nc3ccncn3)c(F)c2)C1 [Example 47, 4-((R)-3-(Dimethylamino)-3-(((R)-6-(trifluoromethyl)-2,3-dihydro-1H-inden-1-yl)methyl)piperidin-1-yl)-2,6-difluoro-N-(pyrimidin-4-yl)benzenesulfonamide formate] | 307
CN(C)[C@@]1(CCc2cccc(C(F)(F)F)c2)CN(c2cc(F)c(S(=O)(=O)Nc3ccncn3)c(F)c2)CC[C@@H]1O (single isomer, unassigned) [Example 75, formate] | 4.48
CN(C)[C@@]1(C[C@@H]2CCc3ccc(C(F)(F)F)cc32)CCCN(c2cc(F)c(S(=O)(=O)Nc3ccncn3)c(F)c2)C1 [Example 46, 4-((R)-3-(Dimethylamino)-3-(((S)-6-(trifluoromethyl)-2,3-dihydro-1H-inden-1-yl)methyl)piperidin-1-yl)-2,6-difluoro-N-(pyrimidin-4-yl)benzenesulfonamide formate] | 1320
CN(C)[C@]1(C[C@H]2CCc3ccc(C(F)(F)F)cc32)CCCN(c2cc(F)c(S(=O)(=O)Nc3ccncn3)c(F)c2)C1 [Example 48, 4-((S)-3-(Dimethylamino)-3-(((R)-6-(trifluoromethyl)-2,3-dihydro-1H-inden-1-yl)methyl)piperidin-1-yl)-2,6-difluoro-N-(pyrimidin-4-yl)benzenesulfonamide formate] | 1.55
CN(C)[C@]1(CCc2cccc(C(F)(F)F)c2)CCCN(c2cc(F)c(S(=O)(=O)Nc3ccon3)c(F)c2)C1 (single isomer, unassigned) [Example 59] | 16
Cc1cc(N2CCC[C@@](CCc3cccc(C(F)(F)F)c3)(N(C)C)C2)ccc1S(=O)(=O)Nc1ccncn1 (single isomer, unassigned) [Example 73, formate] | 673
CN(C)[C@@]1(CCc2cccc(C(F)(F)F)c2)CCCN(c2cc(F)c(S(=O)(=O)Nc3ncccn3)c(F)c2)C1 (single isomer, unassigned) [Example 52] | 569
CN(C)[C@@]1(CCc2cccc(C(F)(F)F)c2)CCCN(c2cc(F)c(S(=O)(=O)Nc3ccncn3)c(F)c2)C1 (single isomer, unassigned) [Example 15] | 288
CN(C)[C@@]1(CCc2cccc(C(F)(F)F)c2Cl)CCCN(c2cc(F)c(S(=O)(=O)Nc3ccncn3)c(F)c2)C1 [Example 40, (S)-4-(3-(2-Chloro-3-(trifluoromethyl)phenethyl)-3-(dimethylamino)piperidin-1-yl)-2,6-difluoro-N-(pyrimidin-4-yl)benzenesulfonamide] | 531
CN[C@]1(CCc2cccc(C(F)(F)F)c2)CCCN(c2ccc(S(=O)(=O)Nc3ccncn3)c(F)c2)C1 [Example 3, (R)-2-Fluoro-4-(3-(methylamino)-3-(3-(trifluoromethyl)-phenethyl)piperidin-1-yl)-N-(pyrimidin-4-yl)benzenesulfonamide] | 21.5
CN[C@@]1(CCc2cccc(C(F)(F)F)c2)CCCN(c2ccc(S(=O)(=O)Nc3ccncn3)c(F)c2)C1 (single isomer, unassigned) [Example 4] | 638
Cc1cc(N2CCC[C@](CCc3cccc(C(F)(F)F)c3)(N(C)C)C2)cc(Cl)c1S(=O)(=O)Nc1ccncn1 (single isomer, unassigned) [Example 66, formate] | 501
CN(C)[C@@]1(CCC2CCCCC2)CCCN(c2cc(F)c(S(=O)(=O)Nc3ccncn3)c(F)c2)C1 [Example 92, (S)-4-(3-(2-Cyclohexylethyl)-3-(dimethylamino)piperidin-1-yl)-2,6-difluoro-N-(pyrimidin-4-yl)benzenesulfonamide formate] | 3.82
CN(C)[C@@]1(CCc2ccc(Cl)c(C(F)(F)F)c2)CCCN(c2cc(F)c(S(=O)(=O)Nc3ccncn3)c(F)c2)C1 (single isomer, unassigned) [Example 54] | 362
CN1CC(CN(C)[C@]2(CCc3cccc(C(F)(F)F)c3)CCCN(c3ccc(S(=O)(=O)Nc4ccncn4)c(F)c3)C2)C1 (single isomer, unassigned) [Example 30, formate] | 13.5
CN(C)[C@@]1(CCc2ccc(C3CC3)c(C(F)(F)F)c2)CCCN(c2cc(F)c(S(=O)(=O)Nc3ccncn3)c(F)c2)C1 (single isomer, unassigned) [Example 86] | 3.78
CN(C)[C@]1(CCc2cccc(C(F)(F)F)c2)CCCN(c2cc(F)c(S(=O)(=O)Nc3ccncn3)cc2F)C1 (single isomer, unassigned) [Example 39] | 9110
CN(C)[C@]1(CCc2cccc(C(F)(F)F)c2)CCCN(c2ccc(S(=O)(=O)Nc3ccncn3)c(F)c2)C1 (single isomer, unassigned) [Example 1] | 6.88
